Laboratory results reported in patent publication US7947833B2, “Preparation of quinoxaline compounds” (Janssen Pharmaceutica NV, priority 2004, dated 2011).

Target: CCK2 receptor (Cavia porcellus, UniProt H0VZC5)
Assay: Guinea-pig gastric corpeal muscle assay (pentagastrin-induced contraction)
Conditions: isolated guinea-pig gastric corpeal muscle strips, pentagastrin concentration-response curves, CCK1 receptors blocked
Description: Guinea-Pig Gastric Corpeal Muscle Assay
CCK2 receptor-mediated muscle contraction was measured in an isolated muscle-strip assay of guinea-pig gastric corpeal muscle according to the methods described by Roberts et al. (S. P. Roberts, E. A. Harper, G. F. Watt, V. P. Gerskowitch, R. A. Hull, N. P. Shankley, and J. W. Black, Br. J. Pharmacol., 1996, 118(7):1779-1789). In brief, strips of muscle were dissected and suspended in isolated tissue organ baths for isotonic muscle contraction recording. The baths, containing Krebs-Henseleit solution, were maintained at […]. and gassed continuously with 95% O2 and 5% CO2. CCK1 receptors known to be present in this assay were blocked using a selective concentration of a suitable CCK1 receptor antagonist (e.g. 2-NAP). The effectiveness of the test compounds was assessed by measuring their effect on contractile concentration-response curves obtained using a well-characterized surrogate for the hormone gastrin (pentagastrin). […]

Chain of CCK2 receptor (H0VZC5 entry or part of it): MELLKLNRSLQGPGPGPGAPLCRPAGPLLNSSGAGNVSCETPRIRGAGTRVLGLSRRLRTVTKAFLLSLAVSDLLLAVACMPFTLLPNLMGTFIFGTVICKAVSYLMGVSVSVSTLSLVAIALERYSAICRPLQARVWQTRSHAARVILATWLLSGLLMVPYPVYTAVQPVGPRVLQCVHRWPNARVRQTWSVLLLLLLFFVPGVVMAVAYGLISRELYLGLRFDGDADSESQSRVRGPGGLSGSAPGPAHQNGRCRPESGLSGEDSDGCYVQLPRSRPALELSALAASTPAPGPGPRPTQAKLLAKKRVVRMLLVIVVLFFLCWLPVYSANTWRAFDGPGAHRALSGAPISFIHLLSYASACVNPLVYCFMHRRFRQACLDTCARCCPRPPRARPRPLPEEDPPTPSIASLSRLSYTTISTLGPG

behaviour in the assay (mode of antagonism): competitive antagonist
Structure (SMILES): C[C@@H](NC(=O)c1ccc(Br)cc1NS(=O)(=O)c1cccc2nccnc12)c1ccc(F)cc1F [Example 2, (R)-4-Bromo-N-[1-(2,4-difluoro-phenyl)-ethyl]-2-(quinoxaline-5-sulfonylamino)-benzamide]
